How the values were obtained:
A673 cells = assay: Cell viability and proliferation, A673 cells (crystal violet); type: cell-based; conditions: cell proliferation IC50 in NHDF cells over A673 cells, 72 h
Description: Small molecule splicing modulators were tested in a dose-response assay using A673 cells and NHDF cells.
A673 cells or NHDF cells were first plated in 96-well plastic tissue culture plates (10,000 cells per well). The cells were treated with vehicle alone (DMSO), or increasing concentrations of SMSM compounds for 72 h. Following treatment, cell proliferation was determined using a crystal violet assay. The relative cell proliferation at each concentration was determined.

[1] = Maximum tolerable dose study (survival, body weight); type: in vivo; conditions: mice
Description: Survival of mice after administration of SMSMs after 10 or 11 days was assessed.
Tolerance of the drug treatments was determined by measuring the weight of the mice during the period of drug administration. Body weight was measured prior to tumor inoculation and prior to the treatment administration and then daily. The changes in the final weight of the mice for the SMSM treatments were determined.

A673 xenografts = A673 xenografts in nude mice, tumor growth inhibition; type: in vivo; conditions: A673 xenograft (FIGS. 20A-B)
Description: Dose range and time course studies comparing anti-neoplastic effects of SMSM−167 and SMSM−151 against vehicle were conducted.
Female NCrNu mice were used. Age range of enrolment was 7-10 weeks. A total of 75 animals were for the studies.
The A673 tumor cell line was maintained in vitro as a monolayer culture. […] The cells growing in an exponential growth phase were harvested and counted for tumor inoculation.
Each mouse were inoculated into a right flank with the single cell suspension of 95% viable tumor cells (5×10^6 cells/mouse) in serum-free RPMI 1640 Media for tumor development. Treatments were administered when mean tumor size reached approximately 75 mm^3.
Before commencement of treatment, all animals were weighed and assigned to treatment groups using a randomization procedure. Mice were randomized into groups based upon their tumor sizes to ensure that each group had approximately the same mean tumor size and range of tumor size.
After inoculation, the animals were checked daily for morbidity and mortality. At the time of routine monitoring, the animals were checked for any effects of tumor growth on normal behavior such as mobility, food and water consumption, body weight gain/loss, eye/hair matting and any other abnormal effects. Deaths and observed clinical signs were recorded.
Body weight were measured prior to tumor inoculation and prior to the treatment administration and then daily. Tumor size were measured 2-3 times per week in two dimensions using a caliper, and the volume were expressed in mm^3 using the formula: V=0.5×a×b^2 where a and b are the long and short diameters of the tumor, respectively.
(§1) Studies were terminated when the tumor size in the vehicle treated group reached 2,000 mm^3. Each mouse was bled at 2 hrs after the last dose and at least 50 μl of plasma were collected from each mouse. All of the collected plasma samples and retainer dosing solutions for each dose level were used for bioanalytical measurements. All tumors were also collected and weighed. One necrosis-free tumor fragment of approximately 50 mg was taken from each tumor and flash-frozen for RNA isolation. The remaining tumor was flash frozen for PK analysis.
(§2) Studies were performed to assess the effects of in vivo SMSM treatment on glioblastoma, breast, pancreatic, prostate, melanoma, lymphoma and Ewing sarcoma tumors. Studies were also performed to assess the effects of in vivo SMSM treatment on mRNA levels. Immunocompromised nude mice with pre-existing glioblastoma, breast, pancreatic, prostate, melanoma, lymphoma and Ewing sarcoma xenografts were treated with vehicle or SMSMs. Tumor tissues from subcutaneous xenografts were broken into a powder using a BioPulverizer (Biospec Products, Inc.). After SMSM treatment, mRNA was isolated from the xenografts and was analyzed by qRT-PCR.
as §1, with “Tumor size was measured 2 times per week in two dimensions using a caliper. Studies” for “Studies”, “plasma was” for “plasma were”
The effects of in vivo SMSM treatments on pre-existing subcutaneous glioblastoma, breast, pancreatic, prostate, melanoma, lymphoma and Ewing sarcoma xenografts were assessed. For these in vivo experiments, 1×10^6Raji, A375, A673, MDA-MB-231, BxPC-3, PC-3 or U87 (cells re-suspended in 100 μl PBS were subcutaneously injected into the flanks of nude mice. When the tumor reached approximately 100 mm^3 (volume=(¾)(π)(length/2)(width/2)^2), the treatments indicated in the tables below were initiated. […]

A375 xenografts = A375 xenografts in nude mice, tumor growth inhibition; type: in vivo; conditions: A-375 xenograft (FIGS. 21A-B)
Description: as §2
as §1, with “Tumor size was measured 2 times per week in two dimensions using a caliper. Studies” for “Studies”, “plasma was” for “plasma were”
The effects of in vivo SMSM treatments on pre-existing subcutaneous glioblastoma, breast, pancreatic, prostate, melanoma, lymphoma and Ewing sarcoma xenografts were assessed. For these in vivo experiments, 1×10^6Raji, A375, A673, MDA-MB-231, BxPC-3, PC-3 or U87 (cells re-suspended in 100 μl PBS were subcutaneously injected into the flanks of nude mice. When the tumor reached approximately 100 mm^3 (volume=(¾)(π)(length/2)(width/2)^2), the treatments indicated in the tables below were initiated.

CN(c1ccc(-c2ccc(-c3cn[nH]c3)cc2O)nn1)[C@H]1C[C@]2(C)CC[C@](C)(C1)N2 [compound 151, 2-(6-(((1R,3s,5S)-1,5-dimethyl-8-azabicyclo[3.2.1]octan-3-yl)(methyl)ami-no)pyridazin-3-yl)-5-(1H-pyrazol-4-yl)phenol]
Ratio NHDF/A673 IC50 (A673 cells): >350
Outcome ([1]; IP, 1 mg/kg, QDx11): All survived
Outcome ([1]; PO, 10 mg/kg, BIDx11): All survived
Outcome ([1]; PO, 10 mg/kg, QDx11): All survived
Tumor Growth Inhibition (TGI) (%) (A673 xenografts; 10 mg/kg BID p.o., Day 3): 28.03%
Tumor Growth Inhibition (TGI) (%) (A673 xenografts; 10 mg/kg BID p.o., Day 6): 34.29%
Tumor Growth Inhibition (TGI) (%) (A673 xenografts; 10 mg/kg BID p.o., Day 10): 22.09%
Tumor Growth Inhibition (TGI) (%) (A673 xenografts; 10 mg/kg BID p.o., Day 13): 30.12%
Tumor Growth Inhibition (TGI) (%) (A673 xenografts; 20 mg/kg BID p.o., Day 3): 37.61%
Tumor Growth Inhibition (TGI) (%) (A673 xenografts; 20 mg/kg BID p.o., Day 6): 45.97%
Tumor Growth Inhibition (TGI) (%) (A673 xenografts; 20 mg/kg BID p.o., Day 10): 55.24%
Tumor Growth Inhibition (TGI) (%) (A673 xenografts; 20 mg/kg BID p.o., Day 13): 71.29%
Tumor Growth Inhibition (TGI) (%) (A673 xenografts; 30 mg/kg QD p.o., Day 3): 23.90%
Tumor Growth Inhibition (TGI) (%) (A673 xenografts; 30 mg/kg QD p.o., Day 6): 34.28%
Tumor Growth Inhibition (TGI) (%) (A673 xenografts; 30 mg/kg QD p.o., Day 10): 17.11%
Tumor Growth Inhibition (TGI) (%) (A673 xenografts; 30 mg/kg QD p.o., Day 13): 23.52%
Tumor Growth Inhibition (TGI) (%) (A375 xenografts; 3 mg/kg i.p. QD *21 days, D4): 15.21%
Tumor Growth Inhibition (TGI) (%) (A375 xenografts; 3 mg/kg i.p. QD *21 days, D7): 18.86%
Tumor Growth Inhibition (TGI) (%) (A375 xenografts; 3 mg/kg i.p. QD *21 days, D11): 27.48%
Tumor Growth Inhibition (TGI) (%) (A375 xenografts; 3 mg/kg i.p. QD *21 days, D14): 41.30%
Tumor Growth Inhibition (TGI) (%) (A375 xenografts; 3 mg/kg i.p. QD *21 days, D18): 62.06%
Tumor Growth Inhibition (TGI) (%) (A375 xenografts; 3 mg/kg i.p. QD *21 days, D21): 55.77%
Tumor Growth Inhibition (TGI) (%) (A375 xenografts; 10 mg/kg p.o. BID *21 days, D4): 22.49%
Tumor Growth Inhibition (TGI) (%) (A375 xenografts; 10 mg/kg p.o. BID *21 days, D7): 28.98%
Tumor Growth Inhibition (TGI) (%) (A375 xenografts; 10 mg/kg p.o. BID *21 days, D11): 48.28%
Tumor Growth Inhibition (TGI) (%) (A375 xenografts; 10 mg/kg p.o. BID *21 days, D14): 49.06%
Tumor Growth Inhibition (TGI) (%) (A375 xenografts; 10 mg/kg p.o. BID *21 days, D18): 58.41%
Tumor Growth Inhibition (TGI) (%) (A375 xenografts; 10 mg/kg p.o. BID *21 days, D21): 50.32%
Tumor Growth Inhibition (TGI) (%) (A375 xenografts; SMSM-151 group 1.5 mg/kg i.p. BID *21 days, D4): 21.81%
Tumor Growth Inhibition (TGI) (%) (A375 xenografts; SMSM-151 group 1.5 mg/kg i.p. BID *21 days, D7): 13.08%
Tumor Growth Inhibition (TGI) (%) (A375 xenografts; SMSM-151 group 1.5 mg/kg i.p. BID *21 days, D11): 24.17%
Tumor Growth Inhibition (TGI) (%) (A375 xenografts; SMSM-151 group 1.5 mg/kg i.p. BID *21 days, D14): 34.70%
Tumor Growth Inhibition (TGI) (%) (A375 xenografts; SMSM-151 group 1.5 mg/kg i.p. BID *21 days, D18): 39.27%
Tumor Growth Inhibition (TGI) (%) (A375 xenografts; SMSM-151 group 1.5 mg/kg i.p. BID *21 days, D21): 36.89%
